# Assay results from US7579371B2, “Methods of using [3.2.0] heterocyclic compounds and analogs thereof” (Nereus Pharmaceuticals, Inc., priority 2004, dated 2009).
# Where “and” joins values, the source holds several entries; their conditions need not be identical. Equal entries are not always repeated. Where two headings read alike, the source gives them in different places.
# Experiments:
# [1] = molecular target: T1, human erythrocyte proteasomes, Trypsin-like activity (Homo sapiens, UniProt Q99436); assay: Trypsin-like activity of human erythrocyte proteasomes; format: biochemical
# T1 construct: from tissue; host or cells: human erythrocytes
# [2] = test system: NCI-H292; assay: Cell growth inhibition assay (resazurin, 48 h); format: cell-based, human; conditions: NCI-H292, 48 h
# [3] = test system: Caspase-3; assay: Caspase-3 activity assay in Jurkat cells; format: cell-based, human; conditions: EC50 concentration, 19 hours
# Experimental: Jurkat cells were plated at 2×10^6 cells/3 mL per well in a 6-well plate and incubated at 37° C., 5% (v/v) CO2 and 95% (v/v) humidity. […] Bhalla, et al., Blood 82:3133 (1993). […] Cells treated with 0.25% DMSO served as the negative control. The cells were collected by centrifugation and the media removed. Cell pellets were processed for the Caspase-3 activity assay as described in the manufacturer's protocol (EnzChek Caspase-3 Assay Kit from Molecular Probes (E-13183; see Appendix G, which form a part of this application and is also available at hypertext transfer protocol on the worldwide web at “probes.com.media/pis/mp13183.pdf.”. In brief, cell pellets were lysed on ice, mixed with the EnzChek Caspase-3 components in a 96-well plate, and then incubated in the dark for 30 minutes prior to reading fluorescence of cleaved benzyloxycarbonyl-DEVD-[…] using a Packard Fusion with λex=485 nm and λem=530 nm filters. Protein concentrations for lysates were determined using the BCA Protein Assay Kit (Pierce) and these values were used for normalization.
# [4] = test system: RAW264.7 cells
# [5] = test system: OVCAR-3; assay: Cell growth inhibition assay (resazurin, 48 h); format: cell-based, human; conditions: OVCAR-3, 48 h
# [6] = test system: RPMI 8226; assay: Cell growth inhibition assay (resazurin, 48 h); conditions: for % cytotoxicity: RPMI 8226
# Experimental: (§1) RPMI 8226 (CCL-155), HT-29 (HTB-38), and B16-F10 (CRL-6475) cells were purchased from ATCC. RPMI 8226 cells were maintained in RPMI 1640 media supplemented with 10% (v/v) FBS, 2 mM L-glutamine, 1 mM sodium pyruvate and Penicillin/Streptomycin at 100 IU/ml and 100 μg/ml, respectively. HT-29 cells were maintained in McCoys 5A supplemented with 10% (v/v) FBS, 2 mM L-glutamine, 1 mM sodium pyruvate, 1% (v/v) non-essential amino acids, 10 mM HEPES and Penicillin/Streptomycin at 100 IU/ml and 100 μg/ml, respectively. B16-F10 cells were maintained in DMEM supplemented with 10% (v/v) FBS, 2 mM L-glutamine, 10 mM HEPES and Penicillin/Streptomycin at 100 IU/ml and 100 μg/ml, respectively.
# (§2) RPMI 8226 cells were seeded at 2×10^4 cells/well in 90 μl RPMI media containing 10% (v/v) FBS or 1% (v/v) FBS into 96 well black-walled, clear-bottom tissue culture plates. […] Formulae II-16, II-17 and Formula II-18 were serially diluted in media containing 1% or 10% FBS and added in triplicate to the test wells. […] The final concentration of Formula II-18 ranged from 2 μM to 630 pM.
# [7] = test system: B16-F10; assay: Cell growth inhibition assay (resazurin, 48 h); format: cell-based, mouse; conditions: B16-F10, 48 h
# Experimental: as §1, §2
# [8] = molecular target: T2, human erythrocyte 20S proteasomes, chymotrypsin-like activity (Homo sapiens, UniProt P28074); assay: Chymotrypsin-like activity of human erythrocyte 20S proteasomes; format: biochemical
# T2 construct: Human erythrocyte 20S proteasomes were obtained from BIOMOL (Cat. # SE-221); purchased BIOMOL SE-221; host or cells: human erythrocytes
# [9] = test system: IκBα; assay: Western blot of total and phosphorylated IκBα, HEK293 and NF-κB/Luc 293 cells; format: cell-based, human; conditions: 50 and 500 nM, 1 hour pre-treatment
# Experimental: Endogenous protein levels were assessed in both HEK293 cells and the NF-κB/Luc 293 reporter clone.
# Antibodies against total and phosphorylated forms of IκBα were used to determine the endogenous level of each protein and anti-Tubulin antibody was used to confirm equal loading of protein.
# [10] = test system: MM.1R and Doxorubicin-resistant Dox-40 cell lines
# [11] = test system: HL-60; assay: cells; conditions: Homo sapiens, HL-60, 48 h
# [12] = test system: tumor cell lines; assay: Growth inhibition / cytotoxicity, summary over tumor cell lines; format: cell-based
# [13] = test system: PANC-1; assay: Cell growth inhibition assay (resazurin, 48 h); format: cell-based; conditions: Homo sapiens, PANC-1, 48 h
structure (smiles),measurement,setting,value
"C[C@@]12OC(=O)[C@]1([C@@H](O)[C@@H]1C=CCCC1)NC(=O)[C@@H]2CCCl [Formula II-16, Salinosporamide A]",EC50,[1],~9 nM
same,EC50,[2]; Homo sapiens,97 nM
same,EC50,[2],66 ± 29 nM
same,Caspase-3 activity,[3],activation of Caspase-3
same,EC50,[4],3.6 nM
same,increase in the viability of LeTx-treated cells compared to LeTx treatment alone,[4],10 fold
same,EC50,[5]; Homo sapiens,69 nM
same,EC50,[5],49 ± 31 nM
same,EC50,"[6]; Homo sapiens, RPMI-8226, 48 h, RPMI 8226, 48 h",8.6 ± 1.9 nM
same,% cytotoxicity,[6]; listed as II-16,94 ± 0%
same,% cytotoxicity,[6]; listed as Salinosporamide A,94 ± 1%
same,EC50,[7],47 ± 20 nM
same,EC50,[7]; Mus musculus,33 nM
same,EC50,[8],~3 nM and ~4 nM
same,effect on total IκBα and phospho-IκBα upon TNF-α stimulation,[9],reduced the degradation of total IκBα but also retained the phospho-IκBα level
same,activity against drug resistant multiple myeloma,[10],active against MM.1R and Doxorubicin-resistant Dox-40 cell lines
same,EC50,[11],27 nM
same,EC50,"[12]; RPMI 8226, PC-3, DU 145, 48 hour, read-out: EC50 values against RPMI 8226 and the prostate cell lines, range",10 to 37 nM
same,EC50,"[12]; read-out: EC50 values for cytotoxicity, range",10 to 200 nM
same,EC50,[13],60 nM
